Test results reported in US10294202B2, “Pyrrolidinones as herbicides” (FMC Corporation, priority 2013, dated 2019).

Experiments:
barnyardgrass [1] = test: Test A pre-/postemergence herbicide test; type: in vivo, Echinochloa crus-galli; details: for Barnyardgrass plant response rating: Preemergence, visual rating on 0 to 100 scale (0 no effect, 100 complete control)
Method in brief: (§1)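 Visual 0–100 ratings (100 = complete control) made about 10 days after treatment, greenhouse-held plants compared with untreated controls. Treatments: postemergence sprays on one- to two-leaf plants (2–10 cm tall) and preemergence directed soil sprays after planting in loam–sand, chemicals formulated in non-phytotoxic solvent containing surfactant.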

kochia = test: Test A pre-/postemergence herbicide test; type: in vivo, Kochia scoparia; details: for Plant response rating, Kochia: 0 to 100 scale
Method in brief: as §1

ragweed = test: Test A pre-/postemergence herbicide test; type: in vivo, Ambrosia elatior; details: for Plant response rating, Ragweed: 0 to 100 scale
Method in brief: as §1

ryegrass, Italian = test: Test A pre-/postemergence herbicide test; type: in vivo, Lolium multiflorum; details: for Plant response rating, Ryegrass, Italian: 0 to 100 scale
Method in brief: as §1

giant foxtail = test: Test A pre-/postemergence herbicide test; type: in vivo, Setaria faberii; details: for Foxtail, Giant plant response rating: Preemergence, visual rating on 0 to 100 scale (0 no effect, 100 complete control)
Method in brief: as §1

pigweed = test: Test A pre-/postemergence herbicide test; type: in vivo, Amaranthus retroflexus; details: for Pigweed plant response rating: Preemergence, visual rating on 0 to 100 scale (0 no effect, 100 complete control)
Method in brief: as §1

wheat = test: Test A pre-/postemergence herbicide test; type: in vivo, Triticum aestivum
Method in brief: as §1

corn = test: Test A pre-/postemergence herbicide test; type: in vivo, Zea mays
Method in brief: as §1

blackgrass = test: Test A postemergence herbicide test; type: in vivo, Alopecurus myosuroides
Method in brief: (§2)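 Potted in loam soil/sand blend; postemergence application at 1–2 leaf stage (2–10 cm). Greenhouse ~10 d. Visual injury vs untreated, 0–100 scale; 100 = complete control.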

galium = test: Test A postemergence herbicide test; type: in vivo, Galium aparine
Method in brief: as §2

rice = test: Test C flooded paddy test; type: in vivo, Oryza sativa; details: Flood
Method in brief: (§3)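 Visual ratings from 0, no effect, to 100, complete control, were made against untreated controls after 13–15 greenhouse days. Compounds had gone straight into paddy water 3 cm above the soil, kept at that depth, on 2-leaf-stage plants.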

sedge, umbrella [2] = test: Test C flooded paddy test; type: in vivo, Cyperus difformis; details: Flood
Method in brief: as §3

ducksalad [3] = test: Test C flooded paddy test; type: in vivo, Heteranthera limosa; details: Flood
Method in brief: as §3

barnyardgrass [4] = test: Test C flooded paddy test; type: in vivo, Echinochloa crus-galli; details: Flood
Method in brief: as §3

crabgrass, large = test: Test A pre-/postemergence herbicide test; type: in vivo, Digitaria sanguinalis
Method in brief: as §1

morningglory = test: Test A pre-/postemergence herbicide test; type: in vivo, Ipomoea spp.
Method in brief: as §1

velvetleaf = test: Test A pre-/postemergence herbicide test; type: in vivo, Abutilon theophrasti
Method in brief: as §1

sedge, umbrella [5] = test: Test B flooded paddy test; type: in vivo, Cyperus difformis; details: 250 g ai/ha, Flood; scale of 0 to 100 where 0 is no effect and 100 is complete control
Description: (§4) Plant species in the flooded paddy test selected from rice (Oryza sativa), sedge, umbrella (small-flower umbrella sedge, Cyperus difformis), ducksalad (Heteranthera limosa), and barnyardgrass (Echinochloa crus-galli) were grown to the 2-leaf stage for testing. At time of treatment, test pots were flooded to 3 cm above the soil surface, treated by application of test compounds directly to the paddy water, and then maintained at that water depth for the duration of the test. Treated plants and controls were maintained in a greenhouse for 13 to 15 days, after which time all species were compared to controls and visually evaluated. Plant response ratings, summarized in Table B, are based on a scale of 0 to 100 where 0 is no effect and 100 is complete control. A dash (-) response means no test result.

ducksalad [6] = test: Test B flooded paddy test; type: in vivo, Heteranthera limosa; details: 250 g ai/ha, Flood; scale of 0 to 100 where 0 is no effect and 100 is complete control
Description: as §4

barnyardgrass [7] = test: Test B flooded paddy test; type: in vivo, Echinochloa crus-galli; details: 250 g ai/ha, Flood; scale of 0 to 100 where 0 is no effect and 100 is complete control
Description: as §4

[8] = Postemergence, 125 g ai/ha, 0 to 100 scale, 0 no effect, 100 complete control
[9] = Postemergence, 500 g ai/ha, 0 to 100 scale (0 no effect, 100 complete control)
[10] = preemergence, 500 g ai/ha, 0 to 100 scale (0 no effect, 100 complete control)
[11] = Postemergence, 125 g ai/ha, 0 no effect, 100 complete control
[12] = Preemergence, 125 g ai/ha, visual rating on 0 to 100 scale (0 no effect, 100 complete control)
[13] = preemergence, 500 g ai/ha, 0 to 100 scale
[14] = 125 g ai/ha, 0 to 100 scale, 0 no effect, 100 complete control
[15] = 125 g ai/ha, scale of 0 to 100 where 0 is no effect and 100 is complete control, 13 to 15 days

O=C1NCC(c2cccc(C(F)(F)F)c2)C1C(=O)Nc1nncs1 (racemic) [Compound 111]
Plant response rating, Barnyardgrass (barnyardgrass [1]; [8]): 0
Plant response rating, Barnyardgrass (barnyardgrass [1]; [9]): 0
Barnyardgrass plant response rating (barnyardgrass [1]; 125 g ai/ha): 0
Plant response rating, Barnyardgrass (barnyardgrass [1]; [10]): 0
Plant response rating, Kochia (kochia; [11]): 0
Kochia plant response rating (0 to 100 scale, 0 is no effect, 100 is complete control) (kochia; Postemergence, 500 g ai/ha): 0
Kochia plant response rating (kochia; [12]): 0
Plant response rating, Kochia (kochia; preemergence, 500 g ai/ha): 0
Plant response rating, Ragweed (ragweed; [11]): 0
Ragweed plant response rating (0 to 100 scale, 0 is no effect, 100 is complete control) (ragweed; Postemergence, 500 g ai/ha): 0
Ragweed plant response rating (ragweed; [12]): 0
Plant response rating, Ragweed (ragweed; preemergence, 500 g ai/ha): 0
Plant response rating, Ryegrass, Italian (ryegrass, Italian; [11]): 0
Ryegrass, Italian plant response rating (0 to 100 scale, 0 is no effect, 100 is complete control) (ryegrass, Italian; Postemergence, 500 g ai/ha): 0
Ryegrass, Italian plant response rating (ryegrass, Italian; [12]): 0
Plant response rating, Ryegrass, Italian (ryegrass, Italian; preemergence, 500 g ai/ha): 0
Plant response rating, Foxtail, Giant (giant foxtail; [8]): 0
Foxtail, Giant plant response rating (0 to 100 scale, 0 is no effect, 100 is complete control) (giant foxtail; Postemergence, 500 g ai/ha): 0
Foxtail, Giant plant response rating (giant foxtail; 125 g ai/ha): 0
Plant response rating, Foxtail, Giant (giant foxtail; [13]): 0
Plant response rating, Pigweed (pigweed; [8]): 0
Pigweed plant response rating (0 to 100 scale, 0 is no effect, 100 is complete control) (pigweed; Postemergence, 500 g ai/ha): 0
Pigweed plant response rating (pigweed; 125 g ai/ha): 0
Plant response rating, Pigweed (pigweed; [13]): 0
Plant response rating, Wheat (wheat; [8]): 0
Wheat plant response rating (0 to 100 scale, 0 is no effect, 100 is complete control) (wheat; Postemergence, 500 g ai/ha): 0
Plant response rating, Corn (corn; [8]): 0
Plant response rating, Corn (corn; [9]): 0
Plant response rating, Blackgrass (blackgrass; [14]): 0
Plant response rating, Blackgrass (blackgrass; 500 g ai/ha, 0 to 100 scale (0 no effect, 100 complete control)): 0
Plant response rating, Galium (galium; [14]): 0
Galium plant response rating (0 to 100 scale, 0 is no effect, 100 is complete control) (galium; 500 g ai/ha): 0
Plant response rating, Rice (rice; [15]): 0
Plant response rating, Rice (rice; 250 g ai/ha, scale 0 to 100): 0
Plant response rating, Rice (rice; 500 g ai/ha, scale 0 to 100): 0
Plant response rating, Rice (rice; 1000 g ai/ha, scale 0 to 100): 0
Plant response rating, Sedge, Umbrella (sedge, umbrella [2]; [15]): 0
Plant response rating, Sedge, Umbrella (sedge, umbrella [2]; 250 g ai/ha, scale 0 to 100): 0
Plant response rating, Sedge, Umbrella (sedge, umbrella [2]; 500 g ai/ha, scale 0 to 100): 0
Plant response rating, Sedge, Umbrella (sedge, umbrella [2]; 1000 g ai/ha, scale 0 to 100): 0
Plant response rating, Ducksalad (ducksalad [3]; [15]): 0
Plant response rating, Ducksalad (ducksalad [3]; 250 g ai/ha, scale 0 to 100): 0
Plant response rating, Ducksalad (ducksalad [3]; 500 g ai/ha, scale 0 to 100): 30
Plant response rating, Ducksalad (ducksalad [3]; 1000 g ai/ha, scale 0 to 100): 40
Plant response rating, Barnyardgrass (barnyardgrass [4]; [15]): 0
Plant response rating, Barnyardgrass (barnyardgrass [4]; 250 g ai/ha, scale 0 to 100): 0
Plant response rating, Barnyardgrass (barnyardgrass [4]; 500 g ai/ha, scale 0 to 100): 0
Plant response rating, Barnyardgrass (barnyardgrass [4]; 1000 g ai/ha, scale 0 to 100): 0

O=C1NCC(c2ccccc2)C1C(=O)Nc1ccccc1C(F)(F)F (racemic) [Compound 82]
Plant response rating, Barnyardgrass (barnyardgrass [1]; [8]): 0
Plant response rating, Barnyardgrass (barnyardgrass [1]; [9]): 50
Barnyardgrass plant response rating (barnyardgrass [1]; 125 g ai/ha): 0
Plant response rating, Barnyardgrass (barnyardgrass [1]; [10]): 50
Plant response rating, Crabgrass, Large (crabgrass, large; [8]): 50
Plant response rating, Crabgrass, Large (crabgrass, large; [9]): 70
Crabgrass, Large plant response rating (crabgrass, large; [12]): 80
Plant response rating, Crabgrass, Large (crabgrass, large; [13]): 90
Plant response rating, Foxtail, Giant (giant foxtail; [8]): 0
Plant response rating, Foxtail, Giant (giant foxtail; [9]): 70
Foxtail, Giant plant response rating (giant foxtail; 125 g ai/ha): 20
Plant response rating, Foxtail, Giant (giant foxtail; [13]): 70
Plant response rating, Morningglory (morningglory; [8]): 0
Plant response rating, Morningglory (morningglory; [9]): 10
Plant response rating, Morningglory (morningglory; [13]): 0
Plant response rating, Pigweed (pigweed; [8]): 0
Plant response rating, Pigweed (pigweed; [9]): 0
Pigweed plant response rating (pigweed; 125 g ai/ha): 0
Plant response rating, Pigweed (pigweed; [13]): 0
Plant response rating, Velvetleaf (velvetleaf; [8]): 0
Plant response rating, Velvetleaf (velvetleaf; [9]): 20
Velvetleaf plant response rating (velvetleaf; [12]): 0
Plant response rating, Velvetleaf (velvetleaf; [13]): 0
Plant response rating, Wheat (wheat; [8]): 0
Plant response rating, Wheat (wheat; [9]): 10
Wheat plant response rating (wheat; [12]): 0
Plant response rating, Wheat (wheat; [13]): 0
Plant response rating, Corn (corn; [8]): 0
Plant response rating, Corn (corn; [9]): 0
Corn plant response rating (corn; [12]): 0
Plant response rating, Corn (corn; [13]): 0
Plant response rating, Sedge, Umbrella (sedge, umbrella [5]): 80
Plant response rating, Ducksalad (ducksalad [6]): 70
Plant response rating, Barnyardgrass (barnyardgrass [7]): 0
